Data reported in PubChem BioAssay AID1259407 (Chemical Carcinogenesis Research Information System (CCRIS), 2018).
Active and inactive are the calls of the source. How the calls were made is not given here.

System: CCRIS mutagenicity, Ames/micronucleus/aberration tests
Assay: CCRIS mutagenicity studies
[1] = Test System: AMES SALMONELLA TYPHIMURIUM, Strain/Indicator: TA98, Metabolic Activation: NONE, Method: PREINCUBATION
[2] = Test System: AMES SALMONELLA TYPHIMURIUM, Strain/Indicator: TA98, Metabolic Activation: NONE, Method: STANDARD PLATE
[3] = Test System: AMES SALMONELLA TYPHIMURIUM, Strain/Indicator: TA100, Metabolic Activation: NONE, Method: PREINCUBATION
[4] = Test System: AMES SALMONELLA TYPHIMURIUM, Strain/Indicator: TA100, Metabolic Activation: NONE, Method: STANDARD PLATE
[5] = Test System: AMES SALMONELLA TYPHIMURIUM, Strain/Indicator: TA1535, Metabolic Activation: NONE, Method: STANDARD PLATE
[6] = Test System: AMES SALMONELLA TYPHIMURIUM, Strain/Indicator: TA1537, Metabolic Activation: NONE, Method: STANDARD PLATE
[7] = Test System: AMES SALMONELLA TYPHIMURIUM, Strain/Indicator: TA1538, Metabolic Activation: NONE, Method: STANDARD PLATE

Measured: mutagenic call

COc1cc(S(=O)(=O)O)c(C)cc1N=Nc1c(O)ccc2cc(S(=O)(=O)O)ccc12
inactive: [1] inactive; negative | [2] inactive; negative | Test System: AMES SALMONELLA TYPHIMURIUM, Strain/Indicator: TA98, Metabolic Activation: RAT LIVER S-9, AROCLOR 1254, Method: STANDARD PLATE inactive; negative | Test System: AMES SALMONELLA TYPHIMURIUM, Strain/Indicator: TA98, Metabolic Activation: S-9, Method: PREINCUBATION inactive; negative | [3] inactive; negative | [4] inactive; negative | Test System: AMES SALMONELLA TYPHIMURIUM, Strain/Indicator: TA100, Metabolic Activation: RAT LIVER S-9, AROCLOR 1254, Method: STANDARD PLATE inactive; negative | Test System: AMES SALMONELLA TYPHIMURIUM, Strain/Indicator: TA100, Metabolic Activation: S-9, Method: PREINCUBATION inactive; negative

O=C(Nc1ccc(Br)cc1)c1cc(Br)cc(Br)c1O
inactive: [2] inactive; negative | Test System: AMES SALMONELLA TYPHIMURIUM, Strain/Indicator: TA98, Metabolic Activation: RAT, LIVER, S-9, KANECHLOR 400, Method: STANDARD PLATE inactive; negative | [4] inactive; negative | Test System: AMES SALMONELLA TYPHIMURIUM, Strain/Indicator: TA100, Metabolic Activation: RAT, LIVER, S-9, KANECHLOR 400, Method: STANDARD PLATE inactive; negative | [5] inactive; negative | Test System: AMES SALMONELLA TYPHIMURIUM, Strain/Indicator: TA1535, Metabolic Activation: RAT, LIVER, S-9, KANECHLOR 400, Method: STANDARD PLATE inactive; negative | [6] inactive; negative | Test System: AMES SALMONELLA TYPHIMURIUM, Strain/Indicator: TA1537, Metabolic Activation: RAT, LIVER, S-9, KANECHLOR 400, Method: STANDARD PLATE inactive; negative | [7] inactive; negative | Test System: AMES SALMONELLA TYPHIMURIUM, Strain/Indicator: TA1538, Metabolic Activation: RAT, LIVER, S-9, KANECHLOR 400, Method: STANDARD PLATE inactive; negative

CCCCCCCCCCCCCCCCCCO
inactive: [2] inactive; negative | Test System: AMES SALMONELLA TYPHIMURIUM, Strain/Indicator: TA98, Metabolic Activation: RAT, LIVER, S-9, AROCLOR 1254, Method: STANDARD PLATE inactive; negative | [4] inactive; negative | Test System: AMES SALMONELLA TYPHIMURIUM, Strain/Indicator: TA100, Metabolic Activation: RAT, LIVER, S-9, AROCLOR 1254, Method: STANDARD PLATE inactive; negative | [5] inactive; negative | Test System: AMES SALMONELLA TYPHIMURIUM, Strain/Indicator: TA1535, Metabolic Activation: RAT, LIVER, S-9, AROCLOR 1254, Method: STANDARD PLATE inactive; negative | [6] inactive; negative | Test System: AMES SALMONELLA TYPHIMURIUM, Strain/Indicator: TA1537, Metabolic Activation: RAT, LIVER, S-9, AROCLOR 1254, Method: STANDARD PLATE inactive; negative | [7] inactive; negative | Test System: AMES SALMONELLA TYPHIMURIUM, Strain/Indicator: TA1538, Metabolic Activation: RAT, LIVER, S-9, AROCLOR 1254, Method: STANDARD PLATE inactive; negative | Test System: E. COLI, Strain/Indicator: WP2, Metabolic Activation: NONE, Method: STANDARD PLATE inactive; negative | Test System: E. COLI, Strain/Indicator: WP2, Metabolic Activation: RAT, LIVER, S-9, AROCLOR 1254, Method: STANDARD PLATE inactive; negative

Nc1ccccc1C(=O)OC1CCCCC1
inactive: Test System: AMES SALMONELLA TYPHIMURIUM, Strain/Indicator: TA97, Metabolic Activation: HAMSTER, LIVER, S-9, AROCLOR 1254 (10%), Method: PREINCUBATION inactive; negative | Test System: AMES SALMONELLA TYPHIMURIUM, Strain/Indicator: TA97, Metabolic Activation: HAMSTER, LIVER, S-9, AROCLOR 1254 (30%), Method: PREINCUBATION inactive; negative | Test System: AMES SALMONELLA TYPHIMURIUM, Strain/Indicator: TA97, Metabolic Activation: NONE, Method: PREINCUBATION inactive; negative | Test System: AMES SALMONELLA TYPHIMURIUM, Strain/Indicator: TA97, Metabolic Activation: RAT, LIVER, S-9, AROCLOR 1254 (10%), Method: PREINCUBATION inactive; negative | Test System: AMES SALMONELLA TYPHIMURIUM, Strain/Indicator: TA97, Metabolic Activation: RAT, LIVER, S-9, AROCLOR 1254 (30%), Method: PREINCUBATION inactive; negative | Test System: AMES SALMONELLA TYPHIMURIUM, Strain/Indicator: TA98, Metabolic Activation: HAMSTER, LIVER, S-9, AROCLOR 1254 (10%), Method: PREINCUBATION inactive; negative | Test System: AMES SALMONELLA TYPHIMURIUM, Strain/Indicator: TA98, Metabolic Activation: HAMSTER, LIVER, S-9, AROCLOR 1254 (30%), Method: PREINCUBATION inactive; negative | [1] inactive; negative | Test System: AMES SALMONELLA TYPHIMURIUM, Strain/Indicator: TA98, Metabolic Activation: RAT, LIVER, S-9, AROCLOR 1254 (10%), Method: PREINCUBATION inactive; negative | Test System: AMES SALMONELLA TYPHIMURIUM, Strain/Indicator: TA98, Metabolic Activation: RAT, LIVER, S-9, AROCLOR 1254 (30%), Method: PREINCUBATION inactive; negative | Test System: AMES SALMONELLA TYPHIMURIUM, Strain/Indicator: TA100, Metabolic Activation: HAMSTER, LIVER, S-9, AROCLOR 1254 (10%), Method: PREINCUBATION inactive; negative | Test System: AMES SALMONELLA TYPHIMURIUM, Strain/Indicator: TA100, Metabolic Activation: HAMSTER, LIVER, S-9, AROCLOR 1254 (30%), Method: PREINCUBATION inactive; negative | [3] inactive; negative | Test System: AMES SALMONELLA TYPHIMURIUM, Strain/Indicator: TA100, Metabolic Activation: RAT, LIVER, S-9, AROCLOR 1254 (10%), Method: PREINCUBATION inactive; negative | Test System: AMES SALMONELLA TYPHIMURIUM, Strain/Indicator: TA100, Metabolic Activation: RAT, LIVER, S-9, AROCLOR 1254 (30%), Method: PREINCUBATION inactive; negative | Test System: AMES SALMONELLA TYPHIMURIUM, Strain/Indicator: TA1535, Metabolic Activation: HAMSTER, LIVER, S-9, AROCLOR 1254 (10%), Method: PREINCUBATION inactive; negative | Test System: AMES SALMONELLA TYPHIMURIUM, Strain/Indicator: TA1535, Metabolic Activation: HAMSTER, LIVER, S-9, AROCLOR 1254 (30%), Method: PREINCUBATION inactive; negative | Test System: AMES SALMONELLA TYPHIMURIUM, Strain/Indicator: TA1535, Metabolic Activation: NONE, Method: PREINCUBATION inactive; negative | Test System: AMES SALMONELLA TYPHIMURIUM, Strain/Indicator: TA1535, Metabolic Activation: RAT, LIVER, S-9, AROCLOR 1254 (10%), Method: PREINCUBATION inactive; negative | Test System: AMES SALMONELLA TYPHIMURIUM, Strain/Indicator: TA1535, Metabolic Activation: RAT, LIVER, S-9, AROCLOR 1254 (30%), Method: PREINCUBATION inactive; negative

O=S(=O)(O)Oc1c2ccccc2c2ccc3cccc4ccc1c2c43
inactive: [1] inactive; negative | Test System: AMES SALMONELLA TYPHIMURIUM, Strain/Indicator: TA98, Metabolic Activation: RAT, LUNG, S-9, Method: PREINCUBATION inactive; negative
